# Data from the supplement of paper PMC10307832.
# Key:
# Test in all cases: relative viability (nuclei count vs DMSO), 5 days (fraction); higher = more cells survive
# IPA-3 + Decitabine = compound: C1=CC=C2C(=C1)C=CC(=C2SSC3=C(C=CC4=CC=CC=C43)O)O [IPA-3] + Nc1ncn([C@H]2C[C@H](O)[C@@H](CO)O2)c(=O)n1 [Decitabine] (partner 2 µM)
# In short: (§1)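 Dosing by pin tool came one day after lung cancer cell lines were seeded in 1536-well plates, using either one drug or a fixed anchor-drug dose plus five library-drug doses (not always all listed) in √10 steps. After 5 days, nuclei were counted on 4× images. Relative viability is treated-well nuclei count divided by vehicle-well nuclei count, and values are medians of duplicate plates.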
# IPA-3 + Crizotinib = compound: C1=CC=C2C(=C1)C=CC(=C2SSC3=C(C=CC4=CC=CC=C43)O)O [IPA-3] + C[C@@H](Oc1cc(-c2cnn(C3CCNCC3)c2)cnc1N)c1c(Cl)ccc(F)c1Cl [Crizotinib] (partner 1 µM)
# In short: as §1
# RAF265 + Bortezomib = compound: Cn1c(Nc2ccc(C(F)(F)F)cc2)nc2cc(Oc3ccnc(-c4ncc(C(F)(F)F)[nH]4)c3)ccc21 [RAF265] + CC(C)C[C@H](NC(=O)[C@H](Cc1ccccc1)NC(=O)c1cnccn1)B(O)O [Bortezomib] (partner 0.002 µM)
# In short: as §1
# IPA-3 + Linsitinib = compound: C1=CC=C2C(=C1)C=CC(=C2SSC3=C(C=CC4=CC=CC=C43)O)O [IPA-3] + C[C@]1(O)C[C@@H](c2nc(-c3ccc4ccc(-c5ccccc5)nc4c3)c3c(N)nccn32)C1 [Linsitinib] (partner 1 µM)
# In short: as §1
Cell Line,relative viability (IPA-3 + Decitabine; first compound 0.2 µM),relative viability (IPA-3 + Decitabine; first compound 0.6325 µM),relative viability (IPA-3 + Decitabine; first compound 2 µM),relative viability (IPA-3 + Decitabine; first compound 6.325 µM),relative viability (IPA-3 + Decitabine; first compound 20 µM),relative viability (IPA-3 + Crizotinib; first compound 0.2 µM),relative viability (IPA-3 + Crizotinib; first compound 0.6325 µM),relative viability (IPA-3 + Crizotinib; first compound 2 µM),relative viability (IPA-3 + Crizotinib; first compound 6.325 µM),relative viability (IPA-3 + Crizotinib; first compound 20 µM),relative viability (RAF265 + Bortezomib; first compound 0.01 µM),relative viability (RAF265 + Bortezomib; first compound 0.03162 µM),relative viability (RAF265 + Bortezomib; first compound 0.1 µM),relative viability (RAF265 + Bortezomib; first compound 0.3162 µM),relative viability (RAF265 + Bortezomib; first compound 1 µM),relative viability (IPA-3 + Linsitinib; first compound 0.2 µM),relative viability (IPA-3 + Linsitinib; first compound 0.6325 µM),relative viability (IPA-3 + Linsitinib; first compound 2 µM),relative viability (IPA-3 + Linsitinib; first compound 6.325 µM),relative viability (IPA-3 + Linsitinib; first compound 20 µM)
NCI-H838,0.579,0.444,0.456,0.398,0.443,1.02,0.788,0.914,0.839,1.27,0.784,0.899,0.788,0.841,0.572,1.34,0.983,1.1,0.978,1.13
NCI-H1355,0.385,0.36,0.375,0.349,0.34,1.21,0.999,0.778,1.07,1.11,1.26,1.19,1.05,1.09,0.804,0.942,0.82,0.786,0.742,0.895
NCI-H1437,0.601,0.515,0.543,0.596,0.581,1.19,0.896,1.04,0.895,1.34,0.541,0.528,0.419,0.56,0.343,1.25,0.933,0.988,0.975,1.3
NCI-H1651,0.699,0.596,0.631,0.644,0.549,0.962,0.85,0.909,0.88,0.961,0.981,0.978,0.974,0.897,0.932,1.1,,1.07,1.04,1.05
NCI-H1666,0.661,0.759,0.737,0.868,0.706,1.1,1.04,1.07,1.15,0.799,1.09,0.809,0.935,0.977,0.595,0.865,0.87,0.857,0.763,0.693
NCI-H1734,0.59,0.457,0.469,0.44,0.436,0.745,0.648,0.71,0.703,0.698,0.937,0.724,0.696,0.7,0.469,0.995,0.849,0.884,0.92,1.07
NCI-H1755,0.752,0.69,0.651,0.699,0.716,0.971,0.763,0.964,0.808,0.95,1.01,0.921,0.892,0.842,0.536,1.03,0.94,0.981,0.984,1.04
